Assay results: patent US9315475B2 (MERCK SHARP & DOHME CORP., priority 2011, dated 2016)
Where a name gives a salt, the structure may show the parent alone.

Tests used:
HIV-1 (H9IIIB strain) = assay: Antiviral acute infection assay in cell culture (Spread); format: cell-based; conditions: HIV-1 H9IIIB infection of MT-4 human T-lymphoid cells in 10% FBS, mean of at least two independent experiments
Description: Antiviral Assays in Cell Culture (“Spread”)
Acute Infection Assay (“Spread”) data were generated using HIV-1 (H9IIIB strain) infection of MT-4 human T-lymphoid cells in 10% FBS, and according to the methods disclosed by J. P. Vacca et al, “L-735,524: An orally bioavailable human immunodeficiency virus type 1 protease inhibitor,” Proc. Natl. Acad. Sci. USA, Vol. 91, pp. 4096-4100 (April 1994).

wildtype HIV-1 protease = biological target: T1, wildtype HIV-1 protease (Human immunodeficiency virus type 1 group M subtype B, UniProt P04585); assay: Assay for inhibition of microbial expressed HIV protease (Pepcleav); format: biochemical; conditions: wild type HIV-1 protease expressed in E. coli, peptide substrate, pH 5.5; mean of at least two independent experiments; read-out: Pepcleav
T1 construct: the wildtype HIV-1 protease (which was expressed in Escherichia coli); made in house; host or cells: Escherichia coli
In short: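 Cleavage of 400 μM peptide substrate Val-Ser-Gln-Asn-(βnaphthyl)Ala-Pro-Ile-Val by 20 pM wild-type enzyme (E. coli-expressed) ran 1 h at 30 °C after 30 min inhibitor preincubation, pH 5.5 acetate buffer. Inhibition derived from product peak area by C18 LC with multiple-reaction-monitoring MS after formic acid quench.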

[1] = Human immunodeficiency virus 1, T-lymphoid

CC(C)OC(=O)N[C@H](C(=O)Nc1cncc(F)c1CC[C@@H]1CN[C@H](COC(=O)NCC(F)(F)F)CO1)C(c1ccc(F)cc1)c1ccc(F)cc1 [Example 277, 4-fluoro-β-(4-fluorophenyl)-N-(5-fluoro-4-{2-[(2R,5S)-5-({[(2,2,2-trifluoroethyl)carbamoyl]oxy}methyl)morpholin-2-yl]ethyl}pyridin-3-yl)-Nα-[(1-methylethoxy)carbonyl]-L-phenylalaninamide]
EC50 (HIV-1 (H9IIIB strain); [1]): 23 nM | IC50 (wildtype HIV-1 protease): 3.2 nM

COC(=O)N[C@H](C(=O)Nc1cccc(F)c1CC[C@@H]1CN[C@H](COC(=O)NCC(F)(F)F)CO1)C(c1ccc(F)cc1)c1ccc(F)cc1 [Example 285]
EC50 (HIV-1 (H9IIIB strain); [1]): 21 nM | IC50 (wildtype HIV-1 protease): 13 nM

N[C@H](C(=O)Nc1cncc(F)c1CC[C@@H]1CN[C@H](COC(=O)NCC(F)(F)F)CO1)[C@H](c1ccc(F)cc1)c1cccc(F)c1 (stereo in doubt) [Example 92]
EC50 (HIV-1 (H9IIIB strain); [1]): 43 nM | IC50 (wildtype HIV-1 protease): 4.4 nM

COC(=O)N[C@H](C(=O)Nc1cccc(F)c1CC[C@@H]1CN[C@H](COC(=O)NCC(F)(F)F)CO1)[C@H](c1ccccc1)c1ccc2ccccc2c1 [Example 290, (βR)-N-(3-fluoro-2-{2-[(2R,5S)-5-({[(2,2,2-trifluoroethyl)carbamoyl]oxy}methyl)morpholin-2-yl]ethyl}phenyl)-Nα-(methoxycarbonyl)-β-naphthalen-2-yl-L-phenylalaninamide]
EC50 (HIV-1 (H9IIIB strain); [1]): 600 nM | IC50 (wildtype HIV-1 protease): 30 nM

O=C(CC(c1ccccc1)c1ccccc1)Nc1cncc(F)c1CC[C@@H]1CN[C@H](COC(=O)NCC(F)(F)F)CO1 [Example 146, [(3S,6R)-6-(2-{3-[(3,3-diphenylpropanoyl)amino]-5-fluoropyridin-4-yl}ethyl)morpholin-3-yl]methyl (2,2,2-trifluoroethyl)carbamate]
EC50 (HIV-1 (H9IIIB strain); [1]): 47 nM | IC50 (wildtype HIV-1 protease): 13 nM

COC(=O)N[C@H](C(=O)Nc1cccc(F)c1CC[C@@H]1CN[C@H](COC(=O)NCC(F)(F)F)CO1)[C@H](c1ccccc1)c1cccc(OC)c1 [Example 305, (βR)-N-(3-fluoro-2-{2-[(2R,5S)-5-({[(2,2,2-trifluoroethyl)carbamoyl]oxy}methyl)morpholin-2-yl]ethyl}phenyl)-3-methoxy-Nα-(methoxy-carbonyl)-β-phenyl-L-phenylalaninamide]
EC50 (HIV-1 (H9IIIB strain); [1]): 42 nM | IC50 (wildtype HIV-1 protease): 230 nM

N[C@H](C(=O)Nc1cncc(F)c1CC[C@@H]1CN[C@H](COC(=O)NCC(F)(F)F)CO1)[C@@H](c1ccc(F)cc1)c1ccc(F)c(F)c1 [Example 265, (βS)-3,4-difluoro-β-(4-fluorophenyl)-N-(5-fluoro-4-{2-[(2R,5S)-5-({[(2,2,2-trifluoroethyl)carbamoyl]oxy}methyl)morpholin-2-yl]ethyl}pyridin-3-yl)-L-phenylalaninamide]
EC50 (HIV-1 (H9IIIB strain); [1]): 36 nM | IC50 (wildtype HIV-1 protease): 3.1 nM

N[C@H](C(=O)Nc1cncc(F)c1CC[C@@H]1CN[C@H](COC(=O)NC2CCCOC2)CO1)C(c1ccc(F)cc1)c1ccc(F)cc1 (stereo partly drawn) [Example 253, 4-fluoro-β-(4-fluorophenyl)-N-(5-fluoro-4-{2-[(2R,5S)-5-{[(tetrahydro-2H-pyran-3-ylcarbamoyl)oxy]methyl}morpholin-2-yl]ethyl}pyridin-3-yl)-L-phenylalaninamide]
EC50 (HIV-1 (H9IIIB strain); [1]): 24 nM | IC50 (wildtype HIV-1 protease): 7.7 nM

COC(=O)N[C@H](C(=O)Nc1cccc(F)c1CC[C@@H]1CN[C@H](COC(=O)NCC(F)(F)F)CO1)[C@H](c1ccc(F)cc1)c1ccc(OC)cc1 [Example 299, (βS)-β-(4-fluorophenyl)-N-(3-fluoro-2-{2-[(2R, 5S)-5-({[(2,2,2-trifluoroethyl)carbamoyl]oxy}methyl)morpholin-2-yl]ethyl}phenyl)-Nα-(methoxy-carbonyl)-O-methyl-L-tyrosinamide]
EC50 (HIV-1 (H9IIIB strain); [1]): 32 nM | IC50 (wildtype HIV-1 protease): 15 nM

N[C@H](C(=O)Nc1c(Cl)cccc1OC[C@@H]1CN[C@H](COC(=O)NCC(F)(F)F)CO1)C(c1ccc(F)cc1)c1ccc(F)cc1 [Example 261, N-(2-chloro-6-{[(2S,5S)-5-({[(2,2,2-trifluoroethyl)carbamoyl]oxy}methyl)morpholin-2-yl]methoxy}phenyl)-4-fluoro-β-(4-fluorophenyl)-L-phenylalaninamide]
EC50 (HIV-1 (H9IIIB strain)): 170 nM | IC50 (wildtype HIV-1 protease): 4.3 nM

N[C@H](C(=O)Nc1cccc(F)c1CC[C@@H]1CN[C@H](COC(=O)NCC(F)(F)F)CO1)[C@H](c1ccccc1)c1ccc(OC(F)(F)F)cc1 [Example 236, (βR)-N-(3-fluoro-2-{2-[(2R,5S)-5-({[(2,2,2-trifluoroethyl)carbamoyl]oxy}methyl)morpholin-2-yl]ethyl}phenyl)-β-phenyl-O-(trifluoromethyl)-L-tyrosinamide]
EC50 (HIV-1 (H9IIIB strain); [1]): 580 nM | IC50 (wildtype HIV-1 protease): 69 nM

COc1ccc([C@H](c2ccc(F)cc2)[C@H](N)C(=O)Nc2cncc(F)c2CC[C@@H]2CN[C@H](COC(=O)NCC(F)(F)F)CO2)cc1 [Example 250, (βR)-β-(4-fluorophenyl)-N-(5-fluoro-4-{2-[(2R,5S)-5-({[(2,2,2-trifluoroethyl)carbamoyl]oxy}methyl)morpholin-2-yl]ethyl}pyridin-3-yl)-O-methyl-L-tyrosinamide]
EC50 (HIV-1 (H9IIIB strain); [1]): 63 nM | IC50 (wildtype HIV-1 protease): 8.3 nM

NC(=O)OC[C@@H]1CO[C@H](CCc2c(F)cccc2NC(=O)C[C@@H](c2ccc(F)cc2)c2ccncc2F)CN1 [Example 157, {(3S,6R)-6-[2-(2-fluoro-6-{[(3S)-3-(4-fluorophenyl)-3-(3-fluoropyridin-4-yl)propanoyl]amino}phenyl)ethyl]morpholin-3-yl}methyl carbamate]
EC50 (HIV-1 (H9IIIB strain); [1]): 18 nM | IC50 (wildtype HIV-1 protease): 9.6 nM

O=C(NCC(F)(F)F)OC[C@@H]1CO[C@H](CCc2c(F)cncc2NC(=O)[C@@H](NC(=O)OCCF)C(c2ccc(F)cc2)c2ccc(F)cc2)CN1 [Example 279, 4-fluoro-Nα-[(2-fluoroethoxy)carbonyl]-β-(4-fluorophenyl)-N-(5-fluoro-4-{2-[(2R,5S)-5-({[(2,2,2-trifluoroethyl)carbamoyl]oxy}methyl)morpholin-2-yl]ethyl}pyridin-3-yl)-L-phenylalaninamide]
EC50 (HIV-1 (H9IIIB strain); [1]): 57 nM | IC50 (wildtype HIV-1 protease): 1.9 nM

N[C@H](C(=O)Nc1cccc(F)c1CC[C@@H]1CN[C@H](COC(=O)NCC(F)(F)F)CO1)[C@H](c1ccccc1)c1ccc(F)c(F)c1 [Example 269, (βR)-β-(3,4-difluorophenyl)-N-(3-fluoro-2-{2-[(2R,5S)-5-({[(2,2,2-trifluoroethyl)carbamoyl]oxy}methyl)morpholin-2-yl]ethyl}phenyl)-L-phenylalaninamide]
EC50 (HIV-1 (H9IIIB strain); [1]): 25 nM | IC50 (wildtype HIV-1 protease): 2.7 nM

O=C(C[C@H](c1ccc(F)cc1)c1ccc(Br)cc1)Nc1cccc(F)c1CC[C@@H]1CN[C@H](COC(=O)NCC(F)(F)F)CO1 [Example 155, {(3S,6R)-6-[2-(2-{[(3R)-3-(4-bromophenyl)-3-(4-fluorophenyl)propanoyl]amino}-6-fluoro-phenyl)ethyl]morpholin-3-yl}methyl (2,2,2-trifluoroethyl)carbamate]
EC50 (HIV-1 (H9IIIB strain); [1]): 58 nM | IC50 (wildtype HIV-1 protease): 6.1 nM

N[C@H](C(=O)Nc1cncc(F)c1CC[C@@H]1CN[C@H](COC(=O)NC(CC(F)(F)F)c2ccc(F)cc2)CO1)C(c1ccc(F)cc1)c1ccc(F)cc1 (stereo partly drawn) [Example 276, 4-fluoro-β-(4-fluorophenyl)-N-[5-fluoro-4-(2-{(2R,5S)-5-[({[3,3,3-trifluoro-1-(4-fluorophenyl)propyl]carbamoyl}oxy)methyl]morpholin-2-yl}ethyl)pyridin-3-yl]-L-phenylalaninamide]
EC50 (HIV-1 (H9IIIB strain); [1]): 28 nM | IC50 (wildtype HIV-1 protease): 0.2 nM

N[C@H](C(=O)Nc1cccc(F)c1CC[C@@H]1CN[C@H](COC(=O)NCC(F)(F)F)CO1)C(c1ccc(F)cc1)c1ccc(F)cc1 [Example 80, 4-Fluoro-β-(4-fluorophenyl)-N-(3-fluoro-2-{2-[(2R,5S)-5-({[(2,2,2-trifluoroethyl)carbamoyl]oxy}methyl)morpholin-2-yl]ethyl}phenyl)-L-phenylalaninamide dihydrochloride]
EC50 (HIV-1 (H9IIIB strain); [1]): 45 nM | IC50 (wildtype HIV-1 protease): 9.4 nM

CCOCCNC(=O)OC[C@@H]1CO[C@H](CCc2c(F)cncc2NC(=O)[C@@H](N)C(c2ccc(F)cc2)c2ccc(F)cc2)CN1 [Example 248, N-(4-{2-[(2R,5S)-5-({[(2-ethoxyethyl)carbamoyl]oxy}methyl)morpholin-2-yl]ethyl}-5-fluoropyridin-3-yl)-4-fluoro-β-(4-fluorophenyl)-L-phenylalaninamide]
EC50 (HIV-1 (H9IIIB strain); [1]): 55 nM | IC50 (wildtype HIV-1 protease): 9.8 nM

CC1(CNC(=O)OC[C@@H]2CO[C@H](CCc3c(F)cncc3NC(=O)CC(c3ccc(F)cc3)c3ccc(F)cc3)CN2)CCCO1 (stereo partly drawn) [Example 166, {(3S,6R)-6-[2-(3-{[3,3-bis(4-fluoro-phenyl)propanoyl]amino}-5-fluoropyridin-4-yl)ethyl]morpholin-3-yl]methyl [(2-methyltetrahydrofuran-2-yl)methyl]carbamate]
EC50 (HIV-1 (H9IIIB strain); [1]): 37 nM | IC50 (wildtype HIV-1 protease): 14 nM

N[C@H](C(=O)Nc1cccc(F)c1CC[C@@H]1CN[C@H](COC(=O)NCc2cccnc2)CO1)C(c1ccc(F)cc1)c1ccc(F)cc1 [Example 201, 4-fluoro-β-(4-fluorophenyl)-N-(3-fluoro-2-{2-[(2R,5S)-5-({[(pyridin-3-ylmethyl)carbamoyl]oxy}methyl)morpholin-2-yl]ethyl}phenyl)-L-phenylalaninamide]
EC50 (HIV-1 (H9IIIB strain); [1]): 80 nM | IC50 (wildtype HIV-1 protease): 28 nM
